Data from patent publication US20160106868A1, “OXYGEN FREE RADICAL DETECTION” (Progenitec Inc., priority 2014, published 2016).

Tests used:
mouse peritoneal PMNs = assay: ROS chemiluminescence of PMA-activated PMNs, L-012 vs. luminol; assay type: cell-based; settings: 1×10^6 PMNs, 2 mM probe; for chemiluminescence emission with PMA activation: PMA (6.5 nM)
Method: The ROS measurements were initiated by adding 10 μl of PMA (6.5 nM) at room temperature. Chemiluminescence images 410, 420 were captured with a 5 minute acquisition time using a Kodak In Vivo FX Pro system (f/stop, 2.5; no optical filter, 4×4 binning).

[1] = system: hypertension-suffering eye; assay: in vivo oxidative stress imaging of mouse eyes; settings: L-012 10 μL, 15 mg/mL topically on eyes
Method: Referring now to FIG. 5, subsequent studies were carried out to evaluate the feasibility of L-012 for in vivo oxidative stress imaging. L-012 (10 μL, 15 mg/mL) was topically dropped on a mouse's eyes with hypertension-suffering left eye 510 or control right eye 520. The animal was sedated and then imaged with a Kodak in vivo FX imaging system, resulting in image 500. A strong bioluminescence signal was found in the hypertension-suffering left eye 510, while control right eye 520 emitted low or no chemiluminescence.

[2] = system: isolated neutrophils (PMNs); assay: detection of ROS generated by isolated PMA-activated neutrophils with nanoprobes; assay type: cell-based; settings: 5 mM Tempol; fluorescence signal remained constant
Method: A number of PMN (5×10^4 to 1×10^6) were incubated in 0.25 ml of 0.9% NaCl solution containing 10 mM phosphate buffer (pH 7.4), 6 mM KCl, and 6 mM MgCl2 in the presence of the nanoprobes (10 μl, 0.5 mg/ml). After incubation of the mixture for 3 min at 37° C., the reaction were initiated by adding 6 nM phorbol 12-myristate 13-acetate (PMA). During the incubation, chemiluminescence and fluorescence intensities were recorded continuously for 60 minutes using a microplate reader.
To verify whether the chemiluminescence signals resulted from ROS generated by activated PMNs, similar PMN-mediated chemiluminescence measurements were carried out in the presence or absence of Tempol, a superoxide dismutase mimetic/ROS neutralizer.

Row | Molecule | chemiluminescence emission with PMA activation (mouse peritoneal PMNs) | signal enhancement in hypertension-suffering eye vs control eye [1] | chemiluminescence signal intensity relative to luminol (mouse peritoneal PMNs; PMA activation, 5 minute acquisition) | PMN-mediated chemiluminescence intensity in the presence of Tempol [2]
1 | 1,4-phthalazinedione, 5-amino-2,3-dihydro [luminol] | emitted chemiluminescence |  |  | 
2 | Nc1c(-c2ccccc2)nc(Cl)c2c(=O)[nH][nH]c(=O)c12 [L-012, 8-amino-5-chloro-7-phenylpyridol[3,4-d]pyridazine-1,4 (2H,3H)dione] | emitted chemiluminescence | ten-fold | approximately 1000 fold | 
3 | CC1(C)CC(O)CC(C)(C)N1[O] [Tempol] |  |  |  | substantially reduced
